Columns and labels:
recombinant human PKM2 = molecular target: T1, recombinant human PKM2 (Homo sapiens, UniProt P14618); test: Human PKM2 activation assay (Kinase-Glo Plus luminescent detection of generated ATP); type: biochemical; conditions: for Emax: read-out: hPKM2 Emax; for EC50: recombinant human PKM2 activation, 4-parameter logistic fit, read-out: hPKM2 EC50
T1 construct: His (N); purchased R&D Systems
How it was run: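 Luminescent ATP detection (Kinase-Glo Plus, 15 min, 26 °C) followed a 60 min, 26 °C shaken reaction of compound with […] His-tagged human PKM2, PEP and ADP in imidazole/KCl/MgCl2 buffer with Tween20 and BSA, pH 7.2.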

recombinant human PKLR = molecular target: T2, recombinant human PKLR (Homo sapiens, UniProt P30613); test: Human PKLR activation assay (Kinase-Glo Plus luminescent detection of generated ATP); type: biochemical; conditions: for EC50: activation of recombinant human PKLR, 4-parameter logistic fit, read-out: hPKLR EC50; for Emax: read-out: hPKLR Emax (%)
T2 construct: His (N); purchased R&D Systems
Experimental: Compound activation of recombinant human PKLR pyruvate kinase activity was determined by biochemical assay. N-terminal His-tagged enzyme was sourced from R&D Systems and its substrates phosphoenolpyruvate (PEP) and ADP from Sigma-Aldrich and 2Bscientific Ltd, respectively. The Kinase-Glo® Plus luminescence assay was from Promega. All other reagents were from Sigma-Aldrich. Test Compounds were prepared as 10 mM DMSO stocks and dilution series prepared in DMSO for direct dilution into Assay Buffer comprising 50 mM imidazole, 50 mM KCl, 7 mM MgCl2, 0.01% Tween20, 0.05% BSA (pH 7.2).
Human PKLR was diluted into Assay Buffer to a final concentration of 5 pM. Enzyme-Assay Buffer mix was dispensed into 384-well shallow-well white-walled plates and Test Compounds added by acoustic dispense (Echo®, Labcyte Inc).
After 60 minutes' incubation on an orbital shaker (300 rpm, 26° C.), enzyme activity was quantified by the luminescent detection of generated ATP. Kinase-Glo® Plus reagent was added to each well and the plates incubated for a further 15 minutes on an orbital shaker in the dark (300 rpm, 26° C.) before luminescence measurement on a plate reader (PHERAstar® FSX, BMG Labtech).
Percentage activation was calculated by normalising […] signals to plate LOW (DMSO vehicle) and HIGH (5 μM TEPP-46) controls. EC50 and Emax values were determined from 4-parameter logistic fits of compound concentration-response curves.

[1] = percentage activation normalised to DMSO vehicle (LOW) and 5 μM TEPP-46 (HIGH)
[2] = percentage activation normalised to DMSO vehicle (LOW) and 5 μM TEPP-46 (HIGH) controls

T1 sequence (P14618 2-531 limits assumed): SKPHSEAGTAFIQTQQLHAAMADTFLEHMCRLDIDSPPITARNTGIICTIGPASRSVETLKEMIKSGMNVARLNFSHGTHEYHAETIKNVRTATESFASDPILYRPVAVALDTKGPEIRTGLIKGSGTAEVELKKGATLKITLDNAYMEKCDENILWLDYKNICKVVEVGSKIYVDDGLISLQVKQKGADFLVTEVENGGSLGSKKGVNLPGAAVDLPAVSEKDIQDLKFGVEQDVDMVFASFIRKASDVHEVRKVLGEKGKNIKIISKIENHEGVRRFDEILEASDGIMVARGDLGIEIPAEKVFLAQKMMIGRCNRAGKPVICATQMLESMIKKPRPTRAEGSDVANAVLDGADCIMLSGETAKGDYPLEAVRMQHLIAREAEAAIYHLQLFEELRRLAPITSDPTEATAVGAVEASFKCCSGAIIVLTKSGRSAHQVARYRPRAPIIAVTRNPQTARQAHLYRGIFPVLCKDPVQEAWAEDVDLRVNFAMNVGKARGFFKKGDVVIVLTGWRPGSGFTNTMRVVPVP
T2 sequence (P30613 whole entry): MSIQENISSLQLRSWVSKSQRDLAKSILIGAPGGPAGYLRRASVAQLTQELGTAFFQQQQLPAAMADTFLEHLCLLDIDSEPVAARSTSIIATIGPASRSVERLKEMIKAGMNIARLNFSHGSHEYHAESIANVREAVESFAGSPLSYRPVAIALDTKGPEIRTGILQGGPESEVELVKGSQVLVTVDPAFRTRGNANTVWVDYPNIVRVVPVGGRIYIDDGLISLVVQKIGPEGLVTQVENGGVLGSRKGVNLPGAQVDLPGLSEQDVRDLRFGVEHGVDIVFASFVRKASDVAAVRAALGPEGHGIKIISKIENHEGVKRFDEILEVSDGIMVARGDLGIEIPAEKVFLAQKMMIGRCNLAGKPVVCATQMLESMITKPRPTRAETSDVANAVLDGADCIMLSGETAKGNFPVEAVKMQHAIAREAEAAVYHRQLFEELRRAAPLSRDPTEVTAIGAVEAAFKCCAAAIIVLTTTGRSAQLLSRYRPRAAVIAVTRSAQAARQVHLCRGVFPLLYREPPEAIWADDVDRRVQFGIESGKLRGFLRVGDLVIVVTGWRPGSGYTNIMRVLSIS

Row | Compound | Emax (recombinant human PKM2; [1]) [%] | EC50 (recombinant human PKM2) [nM] | EC50 (recombinant human PKLR) [nM] | Emax (recombinant human PKLR; [2]) [%] | hPKM2 Emax (recombinant human PKM2; [1]) [%] | hPKLR Emax (%) (recombinant human PKLR; [2])
1 | O=c1c2ccc(S(=O)(=O)c3cnn(CCO)c3)cc2cnn1Cc1cc[nH]n1 [Example 241, 2-((1H-pyrazol-3-yl)methyl)-6-((1-(2-hydroxyethyl)-1H-pyrazol-4-yl)sulfonyl)phthalazin-1(2H)-one] | 106 | 118 | 27.5 | 129 | – | –
2 | Nc1cccc(Cn2ncc3cc(S(=O)(=O)c4ccccc4)ccc3c2=O)c1 [Example 141, 2-(3-aminobenzyl)-6-(phenylsulfonyl)phthalazin-1(2H)-one] | 113 | 78.3 | 8 | 108 | – | –
3 | COc1ccc(Cn2ncc3cc(S(=O)(=O)c4ccc(C)cc4)ccc3c2=O)cn1 [Example 150, 2-((6-methoxypyridin-3-yl)methyl)-6-tosylphthalazin-1(2H)-one] | 90.4 | 44.3 | 6.4 | 85.4 | – | –
4 | O=c1c2ccc(S(=O)(=O)c3ccc4c(c3)OCCO4)cc2cnn1Cc1cc[nH]n1 [Example 207, 2-((1H-pyrazol-3-yl)methyl)-6-((2,3-dihydrobenzo[b][1,4]dioxin-6-yl)sulfonyl)phthalazine-1(2H)-one] | 99.9 | 33.3 | 4.2 | 123 | – | –
5 | COc1ccc([S@@](=N)(=O)c2ccc3c(=O)n(Cc4ccc(OC)nc4)ncc3c2)cc1 (single isomer, unassigned) [Example 191] | – | 85.6 | 14 | – | 91.2 | 133
6 | O=c1c2ccc(S(=O)(=O)c3ccc4occc4n3)cc2cnn1Cc1cc[nH]n1 [Example 223, 2-((1H-pyrazol-3-yl)methyl)-6-(furo[3,2-b]pyridin-5-ylsulfonyl)phthalazin-1(2H)-one] | 107 | 45 | 4.9 | 132 | – | –
7 | O=c1c2ccc(S(=O)(=O)c3cn[nH]c3)cc2cnn1Cc1cccc(C2CC2)n1 [Example 287, 6-((1H-pyrazol-4-yl)sulfonyl)-2-((6-cyclopropylpyridin-2-yl)methyl)phthalazin-1(2H)-one] | 103 | 45.2 | 13 | 110 | – | –
8 | Cn1ccc(Cn2ncc3cc(S(=O)(=O)c4ccccc4)c(F)cc3c2=O)n1 [Example 242, 7-fluoro-2-((1-methyl-1H-pyrazol-3-yl)methyl)-6-(phenylsulfonyl)phthalazin-1(2H)-one] | 107 | 102 | 22.2 | 134 | – | –
9 | COc1ccc(S(=O)(=O)c2ccc3c(=O)n(Cc4ncccc4O)ncc3c2)cc1 [Example 113, 2-((3-hydroxypyridin-2-yl)methyl)-6-(4-methoxyphenylsulfonyl)phthalazin-1(2H)-one] | 133 | 163 | 9.64 | 118 | – | –
10 | O=c1c2ccc(S(=O)(=O)c3cnn(CCO)c3)cc2cnn1Cc1ccn(C2CC2)n1 [Example 272, 2-((1-cyclopropyl-1H-pyrazol-3-yl)methyl)-6-((1-(2-hydroxyethyl)-1H-pyrazol-4-yl)sulfonyl)phthalazin-1(2H)-one] | 91.3 | 93.4 | 39.1 | 124 | – | –
11 | Cn1ccc(Cn2ncc3cc(S(=O)(=O)c4ccc5c(c4)NCCO5)ccc3c2=O)n1 [Example 201, 6-((3,4-dihydro-2H-benzo[b][1,4]oxazin-6-yl)sulfonyl)-2-((1-methyl-1H-pyrazol-3-yl)methyl)phthalazin-1(2H)-one] | 103 | 27.9 | 2.9 | 140 | – | –
12 | Cc1nc(Cn2ncc3cc(S(=O)(=O)c4cn[nH]c4)ccc3c2=O)ccc1F [Example 251, 6-((1H-pyrazol-4-yl)sulfonyl)-2-((5-fluoro-6-methylpyridin-2-yl)methyl)phthalazin-1(2H)-one] | 116 | 111 | 11.3 | 111 | – | –
13 | Cc1cccc(Cn2ncc3cc(S(=O)(=O)c4cnn(C5CC5)c4)ccc3c2=O)n1 [Example 259, 6-((1-cyclopropyl-1H-pyrazol-4-yl)sulfonyl)-2-((6-methylpyridin-2-yl)methyl)phthalazin-1(2H)-one] | 96.7 | 46.1 | 13.1 | 123 | – | –
14 | O=c1c2ccc(S(=O)(=O)c3ccc4occc4n3)cc2cnn1Cc1ccn(C2CC2)n1 [Example 256, 2-((1-cyclopropyl-1H-pyrazol-3-yl)methyl)-6-(furo[3,2-b]pyridin-5-ylsulfonyl)phthalazin-1(2H)-one] | 95.5 | 31.7 | 3.33 | 136 | – | –
15 | COc1ccc([S@@](=N)(=O)c2ccc3c(=O)n(Cc4ccc(OC)nc4)ncc3c2)cc1 (single isomer, unassigned) [Example 138] | 91.2 | 85.6 | 14 | 133 | – | –
16 | O=c1c2ccc(S(=O)(=O)c3cn[nH]c3)cc2cnn1Cc1ccc2occc2n1 [Example 298, 6-((1H-pyrazol-4-yl)sulfonyl)-2-(furo[3,2-b]pyridin-5-ylmethyl)phthalazin-1(2H)-one] | 108 | 19.6 | 2.65 | 118 | – | –
17 | COc1ccc(S(=O)(=O)c2ccc3c(=O)n(Cc4cccc(N)c4)ncc3c2)cc1 [Example 142, 2-(3-aminobenzyl)-6-((4-methoxyphenyl)sulfonyl)phthalazin-1(2H)-one] | 112 | 25.8 | 4.1 | 108 | – | –
18 | O=c1c2cc(NCCO)c(S(=O)(=O)c3ccccc3)cc2cnn1Cc1ccn(C2CC2)n1 [Example 265, 2-((1-cyclopropyl-1H-pyrazol-3-yl)methyl)-7-((2-hydroxyethyl)amino)-6-(phenylsulfonyl)phthalazin-1(2H)-one] | 114 | 134 | 13.5 | 127 | – | –
19 | Cc1ccc(F)c(Cn2ncc3cc(S(=O)(=O)c4cn[nH]c4)ccc3c2=O)n1 [Example 252, 6-((1H-pyrazol-4-yl)sulfonyl)-2-((3-fluoro-6-methylpyridin-2-yl)methyl)phthalazin-1(2H)-one] | 105 | 107 | 18 | 120 | – | –
20 | O=c1c2ccc(S(=O)(=O)c3cnc4occc4c3)cc2cnn1Cc1cc[nH]n1 [Example 225, 2-((1H-pyrazol-3-yl)methyl)-6-(furo[2,3-b]pyridin-5-ylsulfonyl)phthalazin-1(2H)-one] | 114 | 50.3 | 8.6 | 117 | – | –
21 | O=c1c2ccc(S(=O)(=O)c3ccc4occc4c3)cc2cnn1Cc1cc[nH]n1 [Example 195, 2-((1H-pyrazol-3-yl)methyl)-6-(benzofuran-5-ylsulfonyl)phthalazin-1(2H)-one] | 112 | 18.4 | 2 | 121 | – | –
22 | Cc1nc(S(=O)(=O)c2ccc3c(=O)n(Cc4cc[nH]n4)ncc3c2)cs1 [Example 320] | 99.6 | 120 | 14.8 | 131 | – | –
23 | COc1ccc(Cn2ncc3cc(S(=O)(=O)c4cnn(CCO)c4)ccc3c2=O)cn1 [Example 271, 6-((1-(2-hydroxyethyl)-1H-pyrazol-4-yl)sulfonyl)-2-((6-methoxypyridin-3-yl)methyl)phthalazin-1(2H)-one] | 81.3 | 54.5 | 26.4 | 119 | – | –
24 | O=c1c2ccc(S(=O)(=O)c3ccc4c(c3)NCCO4)cc2cnn1Cc1ccn(CCO)n1 [Example 202, 6-((3,4-dihydro-2H-benzo[b][1,4]oxazin-6-yl)sulfonyl)-2-((1-(2-hydroxyethyl)-1H-pyrazol-3-yl)methyl)phthalazin-1(2H)-one] | 109 | 91.7 | 7.9 | 125 | – | –
25 | Cc1[nH]nc(Cn2ncc3cc(S(=O)(=O)c4cn[nH]c4)ccc3c2=O)c1Cl [Example 314] | 94.9 | 46.3 | 4.27 | 114 | – | –
26 | O=c1c2ccc(S(=O)(=O)c3ccc4c(c3)OCCO4)cc2cnn1Cc1ccn(CCO)n1 [Example 206, 6-((2,3-dihydrobenzo[b][1,4]dioxin-6-yl)sulfonyl)-2-((1-(2-hydroxyethyl)-1H-pyrazol-3-yl)methyl)phthalazin-1(2H)-one] | 98.7 | 50 | 10.3 | 128 | – | –

Source: patent US20260152487A1 (Sitryx Therapeutics Limited, priority 2021, published 2026)
